# Reference: PMC6150412, “Design, Synthesis, and Evaluation of Novel Phenolic Acid/Dipeptide/Borneol Hybrids as Potent Angiotensin Converting Enzyme (ACE) Inhibitors with Anti-hypertension Activity” (Molecules : A Journal of Synthetic Chemistry and Natural …, 2017)
# Legend:
# [1] = biological target: T1, angiotensin converting enzyme (ACE) (Oryctolagus cuniculus, UniProt P12822); test: In vitro ACE inhibition assay (hippuric acid release from HHL); type: biochemical; settings: HHL substrate, pH 8.3, 37 °C, 15 min; five concentrations 0.01–10 µM; read-out: ACE-inhibitory activity IC50
# T1 construct: purchased Sigma-aldrich, St. Louis, MO, USA A-6778
# T1 sequence (P12822 34-1310): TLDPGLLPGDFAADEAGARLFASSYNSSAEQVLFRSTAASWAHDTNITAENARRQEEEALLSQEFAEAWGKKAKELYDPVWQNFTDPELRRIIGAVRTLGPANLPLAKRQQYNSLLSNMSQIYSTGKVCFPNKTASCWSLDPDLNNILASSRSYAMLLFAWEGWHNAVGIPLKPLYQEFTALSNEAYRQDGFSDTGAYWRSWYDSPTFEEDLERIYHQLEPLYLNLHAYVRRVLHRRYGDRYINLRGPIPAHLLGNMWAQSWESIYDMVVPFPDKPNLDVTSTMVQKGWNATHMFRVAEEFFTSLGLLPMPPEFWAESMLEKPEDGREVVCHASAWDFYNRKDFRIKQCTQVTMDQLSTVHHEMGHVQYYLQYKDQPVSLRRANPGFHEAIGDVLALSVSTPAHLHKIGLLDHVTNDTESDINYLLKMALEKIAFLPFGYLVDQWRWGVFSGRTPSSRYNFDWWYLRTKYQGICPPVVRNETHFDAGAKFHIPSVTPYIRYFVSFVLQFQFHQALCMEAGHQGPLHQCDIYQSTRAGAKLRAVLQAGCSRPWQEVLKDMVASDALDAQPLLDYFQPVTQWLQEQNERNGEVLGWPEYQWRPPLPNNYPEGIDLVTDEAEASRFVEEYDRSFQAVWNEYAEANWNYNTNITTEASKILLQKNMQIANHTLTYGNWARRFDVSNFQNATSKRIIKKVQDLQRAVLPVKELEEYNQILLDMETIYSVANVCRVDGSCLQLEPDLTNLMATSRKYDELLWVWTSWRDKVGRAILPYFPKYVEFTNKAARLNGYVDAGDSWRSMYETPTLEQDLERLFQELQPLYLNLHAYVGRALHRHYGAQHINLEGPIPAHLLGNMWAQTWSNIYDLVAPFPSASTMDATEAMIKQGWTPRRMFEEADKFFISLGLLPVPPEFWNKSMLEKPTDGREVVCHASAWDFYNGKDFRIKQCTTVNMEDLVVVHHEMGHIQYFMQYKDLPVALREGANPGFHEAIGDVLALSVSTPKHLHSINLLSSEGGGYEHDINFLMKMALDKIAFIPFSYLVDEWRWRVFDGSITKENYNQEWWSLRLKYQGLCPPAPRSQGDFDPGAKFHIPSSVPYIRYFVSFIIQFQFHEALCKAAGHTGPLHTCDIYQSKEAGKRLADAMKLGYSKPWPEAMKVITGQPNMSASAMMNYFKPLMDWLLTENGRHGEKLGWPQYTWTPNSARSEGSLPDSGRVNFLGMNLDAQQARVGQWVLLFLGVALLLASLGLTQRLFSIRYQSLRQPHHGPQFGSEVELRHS
# Description: The in vitro ACE-inhibitory activity of the newly synthesized compounds was evaluated using ACE inhibition assay (Sigma-aldrich, St. Louis, MO, USA, No. A-6778). The experiments were carried out for all the designed compounds (7a–7h), for ACE-inhibitory activity at five different concentrations (0.01–10 µM). Lisinopril, a well-known ACE inhibitor drug, was used as standard for comparison with the inhibitory activity of synthesized compounds. The ACE-inhibitory activity can be calculated by the following equation: ACE-inhibitory activity (inhibition rate %) = [(Ablank1 − Asample)/(Ablank1 − Ablank2)] × 100, where blank 1: Positive control (without ACE inhibition) and blank 2: Reagent blank. Then we measured and calculated the IC50 values of the designed compounds (7a–7h).
# The preliminary biological investigations were conducted in vitro using the ACE-inhibition assay. […] That is, the activity of these compounds gradually declined when the size of the amino acid side chain increased. Besides, the influence of phenolic acids on ACE-inhibitory activity was more obvious following the order: protocatechuic acid > ferulic acid > gallic acid > 3,4-dihydroxybenzene acid. That is, substituents in positions 3 and 4 in the benzene ring are beneficial to the increase of ACE-inhibitory activity. At the same time, the shorter the amino side chain in phenolic acids, the better the ACE-inhibitory activity.
# [2] = system: spontaneously hypertensive rats (SHRs); test: Acute antihypertensive test, single intragastric dose, tail-cuff BP; type: in vivo, rat; settings: for Duration of antihypertensive activity / Reduction in blood pressure (systolic arterial pressure) compared with lisinopril: single oral dose; for Reduction in blood pressure (systolic arterial pressure) compared with lisinopril: same molar dose as lisinopril
# Description: (§1) All the experiments were approved by the Institutional Animal Ethics Committee of Northwest University. Experiments were carried out on spontaneously hypertension rats (SHRs) that were 9–10 weeks old and weighed 200–220 g. SHRs treated with normal saline were used as controls. Lisinopril was used as a standard drug. Blood pressure (BP) was recorded automatically every day by the indirect tail-cuff method using an electrosphygmomanometer (BP-2010A Storage Pressure Meter). […] The BP were measured before and 0.5, 1, 2, 3, 4, 5 and 6 h after a single dose of intragastrical administration of active compounds.
# (§2) Figure 4 (A,B), the acute antihypertensive activity of compounds 7a and 7g in spontaneously hypertension rats (SHRs) for single dose administration (dosing time: 0 min); (C) the therapeutic antihypertensive activity of compounds 7a and 7g in SHRs for 7 days treatment (dosing time: 0 day; blood pressure (BP) measured time: 9:30–11:30 am). Data are presented as mean ± SEM, n = 6. The BP was determined with a BP-2010A Storage Pressure Meter. This system measures BP by recording the cuff pressure at which the interrupted blood flow returns to the tail. Before drug administration, training consisted of five sessions over 3 days. The SHRs were placed into a thermostatically controlled Lucite box of the Visitech system BP2010A, and heated on a heated pad maintained at 37 °C for 2 min before BP measurement started. The tail root of SHR was surrounded by an inflatable tubular sleeve, and a pulse electron detector was placed in the root of the tails. Then BP was measured after the computer provided a stable signal. The BP for the session was accepted as the average of five BP readings that were within 10 mm Hg. The average BP values were calculated by employing the ANOVA method.
# [3] = system: spontaneously hypertensive rats (SHRs); test: Therapeutic antihypertensive test, 7 consecutive days oral treatment, tail-cuff BP; type: in vivo, rat; settings: for Maximum antihypertensive effect compared with lisinopril (20 mg/kg/day): 100 mg/kg daily, oral, 7 days; for Blood pressure during repeated treatment: 100 mg/kg, Po. 7 days
# Description: as §1, §2
smiles,measurement,setting,value
CC(C)[C@H](NC(=O)c1ccc(O)c(O)c1)C(=O)N1CCC[C@H]1C(=O)OC1CC2CCC1(C)C2(C)C (stereo partly shown) [Compound 7a],IC50,[1],6.76 ± 0.96 µM
same,Onset of antihypertensive activity after oral treatment,[2],0.5 h
same,Duration of antihypertensive activity,[2],four
same,Reduction in blood pressure (systolic arterial pressure) compared with lisinopril,[2],slightly better than that of lisinopril
same,Maximum antihypertensive effect compared with lisinopril (20 mg/kg/day),[3],approximately equivalent to that of lisinopril
same,Blood pressure during repeated treatment,[3],decreased remarkably on the second day after oral administration
CC(C)[C@H](NC(=O)Cc1ccc(O)c(O)c1)C(=O)N1CCC[C@H]1C(=O)OC1CC2CCC1(C)C2(C)C (stereo partly shown) [Compound 7b],IC50,[1],13.9 ± 1.61 µM
COc1cc(/C=C/C(=O)N[C@H](C(=O)N2CCC[C@H]2C(=O)OC2CC3CCC2(C)C3(C)C)C(C)C)ccc1O (stereo partly shown) [Compound 7c],IC50,[1],11.9 ± 1.82 µM
CC(C)[C@H](NC(=O)c1cc(O)c(O)c(O)c1)C(=O)N1CCC[C@H]1C(=O)OC1CC2CCC1(C)C2(C)C (stereo partly shown) [Compound 7d],IC50,[1],13.5 ± 2.02 µM
CC(C)C[C@H](NC(=O)c1ccc(O)c(O)c1)C(=O)N1CCC[C@H]1C(=O)OC1CC2CCC1(C)C2(C)C (stereo partly shown) [Compound 7e],IC50,[1],10.6 ± 1.72 µM
CC(C)C[C@H](NC(=O)Cc1ccc(O)c(O)c1)C(=O)N1CCC[C@H]1C(=O)OC1CC2CCC1(C)C2(C)C (stereo partly shown) [Compound 7f],IC50,[1],14 ± 1.84 µM
COc1cc(/C=C/C(=O)N[C@@H](CC(C)C)C(=O)N2CCC[C@H]2C(=O)OC2CC3CCC2(C)C3(C)C)ccc1O (stereo partly shown) [Compound 7g],IC50,[1],6.88 ± 0.85 µM
same,Onset of antihypertensive activity after oral treatment,[2],0.5 h
same,Duration of antihypertensive activity,[2],four
same,Reduction in blood pressure (systolic arterial pressure) compared with lisinopril,[2],slightly better than that of lisinopril
same,Maximum antihypertensive effect compared with lisinopril (20 mg/kg/day),[3],approximately equivalent to that of lisinopril
same,Blood pressure during repeated treatment,[3],decreased remarkably on the second day after oral administration
CC(C)C[C@H](NC(=O)c1cc(O)c(O)c(O)c1)C(=O)N1CCC[C@H]1C(=O)OC1CC2CCC1(C)C2(C)C (stereo partly shown) [Compound 7h],IC50,[1],13.2 ± 2.47 µM
"NCCCC[C@H](N[C@@H](CCc1ccccc1)C(=O)O)C(=O)N1CCC[C@H]1C(=O)O [Lisinopril, reference compound]",IC50,[1],< 0.01 µM
